In patent US11781160B2, “Methods for the production of methacrylates” (priority 2018, dated 2023):

Key:
[1] = test system: E. coli BW25113 isolate 23-soxR(R20L) rpoC(r1075C) 2133236( T> A) 3915915(T > G) acrR(indels); test: Growth kinetics of isolated strain 23 with 20% v/v BMA
E. coli BW25113 ΔacrR = test: Growth in MSX medium with 20% (v/v) BMA, knock-out strain; type: cell-based, Escherichia coli; details: 20% (v/v) BMA added immediately after inoculation
[2] = test system: E. coli MG1655 soxR(R20H); test: Growth in MSX medium with 20% (v/v) BMA, single mutant; type: cell-based, Escherichia coli; details: 20% (v/v) BMA added immediately after inoculation
[3] = test system: gene transcription in strain 5; test: Transcriptome analysis with added BMA, strain 5
Procedure: Transcriptome analysis was carried out to characterize transcriptional activity in mutant microorganisms using standard methods.
Sample Preparation • 1) Streak strains onto fresh MSX agar (15 g/L) plates directly from the cryostocks and incubate overnight at 37° C. • 2) Isolate single colonies and inoculate pre-cultures in MSX, using 50 ml shake flasks. Incubate overnight at 37° C. and 250 rpm. • 3) Inoculate cultures in MSX to an initial OD600 of 0.05, using 250 mL pyrex shake flasks with 24/29 neck join. Incubate at 37° C. and 250 rpm. Do 4 biological replicates (3 replicates for sequencing plus one backup)—4 flasks per strain. • 4) Seal shake flasks with sterile Suba seals. To monitor OD, take samples using a sterile syringe and needle after first swabbing the Suba seals with 70% ethanol. Monitor OD. • 5) When OD reaches 0.3, collect first sample for RNA extraction (“before” sample) into a pre-chilled falcon. Keep samples on ice. • 6) Immediately after, add 20% (v/v) BMA. Re-incubate cultures. • 7) Quickly process the samples according to the RNeasy kit protocol, until step 6 of protocol 1. Always keep samples on ice and store it at −80° C. until further use, if possible, flash freeze in liquid nitrogen it before storing. • 8) One hour after the first sample collection/BMA addition, collect the second sample for RNA extraction (“after” sample). Proceed as explained before. • 9) Continue to monitor the OD until the cultures reach 24 h. • To summarise, each strain tested will have 6 samples to send for sequencing, 3 collected right before the addition and 3 collected one hour after, plus 1 “back-up” for before and after, in case something goes wrong during extraction (8 samples total). Besides the WT strain with the addition of BMA, samples were also collected from a WT culture with no BMA, one hour after reaching OD of 0.3, as a control.
Transcription was compared for a double mutant and the wild-type in the presence and absence of BMA relative to the level in the wild type in the absence of BMA. For the avoidance of doubt the level in the table is the ratio of the level in the strain under the BMA exposure relative to the level in the wild type in the absence of added BMA.

In the case of `C=C(C)C(=O)OCCCC` [BMA, butyl 2-methylprop-2-enoate], the Growth rate [1] is reported as 0.722 ± 0.019 h⁻¹, the Lag time [1] is reported as 4 h and the Max cell concentration [1] is reported as 0.529 ± 0.023 g/L. For the same molecule, the “Growth in the presence of BMA” value (E. coli BW25113 ΔacrR) was “unable to grow”, the “Growth in the presence of BMA” value [2] was “able to grow” and the “IdhA transcription level relative to wild type without BMA” value [3] was 18.24. For the same molecule, the “acrA transcription level relative to wild type without BMA” value [3] was 6.28, the “acrB transcription level relative to wild type without BMA” value [3] was 7.49 and the “adiY transcription level relative to wild type without BMA” value [3] was 24.79. For the same molecule, the “ariR transcription level relative to wild type without BMA” value [3] was 21.79, the “asr transcription level relative to wild type without BMA” value [3] was 160.42 and the “bssR transcription level relative to wild type without BMA” value [3] was 20.35. The “ibpA transcription level relative to wild type without BMA” value [3] was 43.39, the “ibpB transcription level relative to wild type without BMA” value [3] was 174.50 and the “narG transcription level relative to wild type without BMA” value [3] was 47.85. The “nirB transcription level relative to wild type without BMA” value [3] was 34.19, the “nirD transcription level relative to wild type without BMA” value [3] was 16.69 and the “pspA transcription level relative to wild type without BMA” value [3] was 23.32. The “pspB transcription level relative to wild type without BMA” value [3] was 16.87, the “pspD transcription level relative to wild type without BMA” value [3] was 14.10 and the “pspc transcription level relative to wild type without BMA” value [3] was 16.55. For the same molecule, the “raiA transcription level relative to wild type without BMA” value [3] was 20.11, the “rmf transcription level relative to wild type without BMA” value [3] was 15.45 and the “soxS transcription level relative to wild type without BMA” value [3] was 41.81. The “spy transcription level relative to wild type without BMA” value [3] was 20.88, the “ybfA transcription level relative to wild type without BMA” value [3] was 20.19 and the “ybhG transcription level relative to wild type without BMA” value [3] was 18.33. The “ybiH transcription level relative to wild type without BMA” value [3] was 15.30, the “ydgU transcription level relative to wild type without BMA” value [3] was 48.46 and the “yhjx transcription level relative to wild type without BMA” value [3] was 105.59. The “yibT transcription level relative to wild type without BMA” value [3] was 29.57, the “ymgA transcription level relative to wild type without BMA” value [3] was 16.41 and the “ymgC transcription level relative to wild type without BMA” value [3] was 17.15. For the same molecule, the “ynfM transcription level relative to wild type without BMA” value [3] was 40.65 and the “yohk transcription level relative to wild type without BMA” value [3] was 16.04.
